The values below come from the Deep4Chem optical property database.

This data set in a line: photoluminescence quantum yield (fraction); solvent given as SMILES.
Where [1] appears, read: in c1cc(-n2c3ccccc3c3ccccc32)cc(-n2c3ccccc3c3ccccc32)c1.
The mark [2] stands for this setting: in O=P(c1ccccc1)(c1ccccc1)c1ccccc1Oc1ccccc1P(=O)(c1ccccc1)c1ccccc1.

For `CC1(C)Cc2c(c3ccccc3c3nc4c5c(c6ccccc6c4nc23)OC(C)(C)C5)O1`, the photoluminescence quantum yield by setting is: (in C1CCCCC1) 0.42; (in C1COCCO1) 0.47; (in CC#N) 1; (in CC(C)O) 1; (in CCCCCC) 0.27; (in CO) 1. The photoluminescence quantum yield was 0.53 (in ClC(Cl)Cl) and 0.52 (in c1ccccc1).

As to `F[B-]1(F)n2c(ccc2-c2cccs2)C(C(F)(F)F)=C2C=CC(c3cccs3)=[N+]21`, the photoluminescence quantum yield (in CCCCCC) is 1.

`CCCCCCC(CCCCCC)N1C(=O)c2cccc3c(-c4ccc(OC)c5cccc(C)c45)ccc(c23)C1=O`: the photoluminescence quantum yield came to 0.34 (in CCCCCC); 0.34 (in CCCCCCCCCCCCCC); 0.28 (in CCCCCCCCCCCO); 0.047 (in CCCCO); 0.055 (in CN(C)C=O); 0.19 (in Cc1ccccc1). Where the note is “in ClC(Cl)Cl”, this compound returned a photoluminescence quantum yield of 0.4.

`c1ccc([B-]2(c3ccccc3)Oc3ccc4ccccc4c3-c3c4ccccc4nc[n+]32)cc1` yielded a photoluminescence quantum yield (in Cc1ccccc1) of 0.25.

For the compound `CCOC(=O)C(C(=O)OCC)C1=[N+]2C(=C(c3ccc(C)cc3)c3ccc(Cl)n3[B-]2(F)F)C=C1`, the photoluminescence quantum yield was 0.46 (in C1CCCCC1); 0.48 (in C1CCOC1); 0.4 (in CCOC(C)=O); 0.28 (in CO); 0.79 (in Cc1ccccc1); 0.52 (in ClC(Cl)Cl).

Regarding `CC1[C@@H]2[C@@H]1[C@]1(c3ccccc3)N=NC2(c2ccccc2)C2C3C=CC(C3)C21` (some centres undefined), under “in CC#N”, the photoluminescence quantum yield came to 0.018.

Compound `c1cc2ccc1-c1ccc(cc1)-c1ccc([se]1)-c1ccc(cc1)-c1ccc(cc1)-c1ccc([se]1)-c1ccc(cc1)-c1ccc(cc1)-c1ccc([se]1)-c1ccc(cc1)-c1ccc(cc1)-c1ccc-2[se]1` registered a photoluminescence quantum yield (in C1CCOC1) of 0.13.

Regarding `Nc1ccc2cn[nH]c2c1`, the photoluminescence quantum yield runs as follows: (in C1CCCCC1) 0.34; (in CC#N) 0.33; (in CO) 0.31; (in O) 0.39.

`CCCCCCCCn1c(=O)c2cc3c(-c4ccc(N(c5ccccc5)c5ccccc5)cc4)c4cc5c(=O)n(CCCCCCCC)c(=O)c5cc4c(-c4ccc(N(c5ccccc5)c5ccccc5)cc4)c3cc2c1=O` had a photoluminescence quantum yield (in ClC(Cl)Cl) of 0.03.

As to `c1ccc(N(c2ccccc2)c2ccc(-c3ccc4c(c3)C3(c5cc(-c6ccc(N(c7ccccc7)c7ccccc7)cc6)ccc5-4)c4ccccc4N(c4ccccc4)c4ccccc43)cc2)cc1`, the photoluminescence quantum yield (in ClCCl) was 0.82 and the photoluminescence quantum yield under setting [1] worked out at 0.86.

With `FC(F)(F)c1ccc2oc3nc4oc5ccc(-n6c7ccccc7c7ccccc76)cc5c4cc3c2c1`, the photoluminescence quantum yield (in ClC(Cl)Cl) was found to be 0.074.

In the case of `CCCCCCc1ccc(-n2c3c4cccc(OC)c4nc(-c4ccc(C#N)cc4)c3c3c2c2c(-c4ccc(C#N)cc4)nc4c(OC)cccc4c2n3-c2ccc(CCCCCC)cc2)cc1`, where the note is “in ClC(Cl)Cl”, the photoluminescence quantum yield was determined as 0.13.

Under “in CS(C)=O”, `Cn1c2ccccc2c(=O)c2ccccc21` had a photoluminescence quantum yield of 0.65.

Turning to `CC(=O)OCCN1C(=O)c2cccc3c(Oc4ccccc4C)ccc(c23)C1=O`, the photoluminescence quantum yield (in ClC(Cl)Cl) came to 0.12.

In turn, `Cc1ccccc1-c1nc(-c2ccccc2C)nc(-c2ccc(N3c4ccccc4C4(c5ccccc5-c5ccccc54)c4ccccc43)cc2C)n1` displayed a photoluminescence quantum yield under setting [2] of 0.62.

As for `Cc1ccc(C2CC(c3ccc(O)cc3)=NN2c2ccc(S(N)(=O)=O)cc2)cc1` (centres undefined), the photoluminescence quantum yield is 0.7 (in C1CCOC1); 0.73 (in C1COCCO1); 0.64 (in CC#N); 0.5 (in CC(C)O); 0.43 (in CCO); 0.68 (in CCOC(C)=O). The photoluminescence quantum yield by setting is: (in CN(C)C=O) 0.76; (in CO) 0.33; (in CS(C)=O) 0.82; (in O) 0.55.

The compound `CN(C)c1ccc(-c2ccc(-c3cc(-c4ccccc4)c(-c4ccccc4)c(-c4ccccc4)c3-c3ccccc3)s2)cc1` showed a photoluminescence quantum yield (in ClC(Cl)Cl) of 0.35.

Turning to `COC(=O)c1ccc2c3ccc(C(=O)OC)c4c(C(=O)OC)ccc(c5ccc(C(=O)OC)c1c25)c43`, the photoluminescence quantum yield by setting is: (in C1COCCO1) 0.99; (in CC#N) 0.97; (in CC(C)=O) 0.99; (in CC(C)O) 0.96; (in CCCCO) 0.96; (in CN(C)C=O) 0.95. The same compound came in with a photoluminescence quantum yield (in CO) of 0.99 and a photoluminescence quantum yield (in ClC(Cl)Cl) of 0.83.

With `Cc1cc(C)c(B(c2c(C)cc(C)cc2C)c2cc3ccc4ccccc4c3c3c2ccc2ccccc23)c(C)c1`, the photoluminescence quantum yield is, setting by setting: (in C1CCCCC1) 0.65; (in C1CCOC1) 0.73; (in CC#N) 0.58; (in ClC(Cl)Cl) 0.8; (in c1ccccc1) 0.89.

With `C/C(=C\c1ccc(C)cc1)c1nc2ccccc2s1`, the photoluminescence quantum yield by setting is: (in C1CCCCC1) 0.003; (in CO) 0.001.

Under “in O”, `Fc1cc(F)c2cc3cccc[n+]3cc2c1` yielded a photoluminescence quantum yield of 0.3.

In turn, `N#CC1=CC(C#Cc2ccccc2)=CC(C#N)=P1(c1ccccc1)c1ccccc1` showed a photoluminescence quantum yield (in ClC(Cl)Cl) of 0.61.

`COc1ccc(-c2csc(/C(C#N)=C/c3ccc([N+](=O)[O-])cc3)n2)cc1` showed a photoluminescence quantum yield (in CC#N) of 0.

Where the note is “in CS(C)=O”, `Cn1c(=O)c(/N=N/c2ccc(Nc3ccccc3)c(S(=O)(=O)O)c2)c(O)c2ccccc21` gave a photoluminescence quantum yield of 0.04.

With `N#Cc1ccc(-c2ccc3c(c2)c2cc(-c4ccc(C#N)cc4)ccc2c2c3nc(-c3ccc(-c4ccc(N(c5ccccc5)c5ccccc5)cc4)cc3)n2-c2ccccc2)cc1`, the photoluminescence quantum yield runs as follows: (in C1CCOC1) 0.54; (in CC#N) 0.51; (in CCCCCC) 0.82; (in CCOCC) 0.9.

Where the note is “in Cc1ccccc1”, `CCCCCCc1cc2/c(=C(\C#N)C(=O)OC)s/c(=c3/s/c(=C(/C#N)C(=O)OC)c4cc(CCCCCC)sc34)c2s1` gave a photoluminescence quantum yield of 0.086.

For the setting “in ClCCl”, `C(#Cc1ncc(-c2ccccc2)o1)c1cccnc1` displayed a photoluminescence quantum yield of 0.13.

Under “in CC#N”, `C(=C\c1nc2c3ccccc3c3ccccc3c2o1)/c1ccccc1` yielded a photoluminescence quantum yield of 0.23.

With `O=C([O-])c1ccccc1C1=c2cc3c4c(c2Oc2c1cc1c5c2CCCN5CCC1)CCC[N+]=4CCC3`, the photoluminescence quantum yield came out at 1 (in CC#N); 0.98 (in CCO); 1 (in CN(C)C=O); 1 (in CO); 0.99 (in O).

`CCn1c2c(-c3cccs3)cc(C(C)(C)C)cc2c2cc(C(C)(C)C)cc(-c3cccs3)c21` came in with a photoluminescence quantum yield (in ClCCl) of 0.064.

For `c1ccc2c(c1)[nH]c1ccccc12`, the photoluminescence quantum yield reads like this: (in CC#N) 0.62; (in CCCCCC) 0.53; (in CCO) 0.44.

As for `CCCCNC(=O)c1nc2c(N(C)C)nc(N(C)C)nc2n1Cc1ccccc1`, the photoluminescence quantum yield reads like this: (in C1COCCO1) 0.95; (in CC#N) 0.95; (in CO) 0.89; (in ClCCl) 0.87.

Take `F[B-]1(F)n2c(ccc2-c2cccs2)C(c2ccc(Br)cc2)=C2C=CC(c3cccs3)=[N+]21`: the photoluminescence quantum yield (in ClC(Cl)Cl) is 0.82.

On to `O=c1c2cc(Cl)ccc2nc2n1[B-](F)(F)[n+]1ccccc1-2`, for which the photoluminescence quantum yield worked out at 0.89 (in CC#N) and 0.99 (in ClCCl).

`O=c1c2ccccc2n2c3ccccc3c(=O)c3cccc1c32` displayed a photoluminescence quantum yield under setting [1] of 0.724.

For `Clc1nc(Cl)nc(Nc2cc3ccc4cccc5ccc(c2)c3c45)n1`, the photoluminescence quantum yield by setting is: (in CC#N) 0; (in CCCCOCCCC) 0.06; (in CO) 0.

In the case of `Oc1ccccc1`, the photoluminescence quantum yield (in C1CCCCC1) came to 0.09.

Turning to `C(=C1c2ccccc2CCc2ccccc21)c1ccc(-c2cc(-c3ccc(C=C4c5ccccc5CCc5ccccc54)cc3)cc(-c3ccc(C=C4c5ccccc5CCc5ccccc54)cc3)c2)cc1`, under “in C1CCOC1”, the photoluminescence quantum yield worked out at 0.0045.

On to `CCCn1c(=O)c(/C=C/c2nc3ccc(C)cc3n(CCC)c2=O)nc2ccc(C)cc21`, for which the photoluminescence quantum yield is 0.2 (in C1COCCO1), 0.15 (in CC#N) and 0.21 (in ClCCl).

Turning to `COc1ccc(C#Cc2nc3ccccc3nc2-c2cn(C)c3ccccc23)cc1`, the photoluminescence quantum yield is, setting by setting: (in C1CCOC1) 0.19; (in CC#N) 0.13; (in CC(C)=O) 0.16; (in CC(C)O) 0.02; (in CCO) 0.01; (in CCOC(C)=O) 0.17. Moreover, the photoluminescence quantum yield was found to be 0.01 (in CO), 0.3 (in Cc1ccccc1) and 0.19 (in ClCCl).

As for `COc1ccc(-c2csc(/C(C#N)=C/c3ccc(Cl)cc3)n2)cc1`, the photoluminescence quantum yield (in CC#N) stood at 0.048.

Consider `CCOc1cccc2c1O[B-](F)(F)[n+]1c3c(c4c(c1-2)-c1ccccc1CC4)-c1ccccc1CC3`, for which the photoluminescence quantum yield (in ClCCl) is 0.16.

`COc1ccc(C2=C(c3ccc(C)cc3)C(c3ccccc3)=[N+]3C2=Nc2c(-c4ccc(OC)cc4)c(-c4ccc(C)cc4)c(-c4ccccc4)n2[B-]3(F)F)cc1` registered a photoluminescence quantum yield (in Cc1ccccc1) of 0.01.

The compound `c1ccc(-c2nc(-c3ccccc3)nc(-n3c4ccccc4c4cc(-n5c6ccccc6c6ccccc65)ccc43)n2)cc1` displayed a photoluminescence quantum yield under setting [2] of 0.62.

In the case of `N#Cc1c(-n2c3ccccc3c3ccccc32)cccc1-n1c2ccccc2c2ccccc21`, the photoluminescence quantum yield by setting is: (in Cc1ccccc1) 0.13; under setting [2], 0.28.
